Earlier results as cited in US8709476B2, “Compositions of quaternary ammonium compounds containing bioavailability enhancers” (Supernus Pharmaceuticals, Inc., priority 2003, dated 2014).

Conditions: in humans; oral dosage form

For `O=C(O[C@H]1C[C@H]2CC[C@@H](C1)[N+]21CCCC1)C(O)(c1ccccc1)c1ccccc1` [Trospium chloride], the bioavailability is given as “up to 10%”.
